What all share (assay): relative viability (nuclei count vs DMSO), 5 days (fraction); higher = more cells survive
Compound in experiment [1]: C(C(=O)C(=O)O)Br [Bromopyruvate] + C[C@]1(O)C[C@@H](c2nc(-c3ccc4ccc(-c5ccccc5)nc4c3)c3c(N)nccn32)C1 [Linsitinib] (partner 1 µM)
The method, boiled down:
(§1)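 Lung cancer cell lines were pin-tool dosed in 1536-well plates on the day after seeding, with either a lone drug or a fixed anchor-drug dose plus five library-drug doses (not always all listed) in √10 steps. Nuclei were counted on 4× images after 5 days. Relative viability is the ratio of treated-well to vehicle-well nuclei counts, with each value a median of duplicate plates.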

Compound in experiment [2]: C(C(=O)C(=O)O)Br [Bromopyruvate] + Cc1nc(Nc2ncc(C(=O)Nc3c(C)cccc3Cl)s2)cc(N2CCN(CCO)CC2)n1 [Dasatinib] (partner 0.075 µM)
The method, boiled down:
as §1

Compound in experiment [3]: C(C(=O)C(=O)O)Br [Bromopyruvate] + Nc1nc2[nH]cc(CCc3ccc(C(=O)N[C@@H](CCC(=O)O)C(=O)O)cc3)c2c(=O)[nH]1 [Pemetrexed] (partner 0.2 µM)
A digest of the protocol: as §1

Compound in experiment [4]: CC(O)(CS(=O)(=O)c1ccc(F)cc1)C(=O)Nc1ccc(C#N)c(C(F)(F)F)c1 [Bicalutamide] + CS(=O)(=O)CCNCc1ccc(-c2ccc3ncnc(Nc4ccc(OCc5cccc(F)c5)c(Cl)c4)c3c2)o1 [Lapatinib] (partner 2 µM)
A digest of the protocol: as §1

On to HOP-62, for which the relative viability in experiment [1] (first compound 1 µM) amounted to 1.04; in experiment [1] (first compound 3.162 µM), 1.02; in experiment [1] (first compound 31.62 µM), 0.368; in experiment [1] (first compound 100 µM), 0.24; in experiment [2] (first compound 1 µM) it was 0.643; in experiment [2] (first compound 3.162 µM) it was 0.68. The relative viability in experiment [2] (first compound 10 µM) amounted to 0.791; in experiment [2] (first compound 31.62 µM), 0.609; in experiment [2] (first compound 100 µM) it was 0.709; in experiment [3] (first compound 1 µM), 0.302; in experiment [3] (first compound 3.162 µM) it was 0.321; in experiment [3] (first compound 10 µM), 0.326. For the same cell line, the relative viability in experiment [3] (first compound 31.62 µM) stood at 0.356; in experiment [3] (first compound 100 µM), 0.207; in experiment [4] (first compound 0.08 µM) it was 1.13; in experiment [4] (first compound 0.253 µM), 0.995; in experiment [4] (first compound 0.8 µM), 1.05; in experiment [4] (first compound 2.53 µM) it was 1.07.
Consider LOU-NH91, for which the relative viability in experiment [1] (first compound 1 µM) was found to be 0.89; in experiment [1] (first compound 3.162 µM), 0.964; in experiment [1] (first compound 10 µM), 0.944; in experiment [1] (first compound 31.62 µM), 1.04; in experiment [1] (first compound 100 µM), 1.1; in experiment [2] (first compound 1 µM), 0.592. The relative viability was found to be 0.535 in experiment [2] (first compound 3.162 µM); 0.61 in experiment [2] (first compound 10 µM); 0.58 in experiment [2] (first compound 31.62 µM); 0.558 in experiment [2] (first compound 100 µM); 0.402 in experiment [3] (first compound 1 µM); 0.371 in experiment [3] (first compound 3.162 µM). The relative viability in experiment [3] (first compound 10 µM) was determined as 0.366; in experiment [3] (first compound 31.62 µM), 0.402; in experiment [3] (first compound 100 µM), 0.443; in experiment [4] (first compound 0.08 µM) it was 0.816; in experiment [4] (first compound 0.253 µM) it was 0.638; in experiment [4] (first compound 0.8 µM) it was 0.856. Besides, the relative viability in experiment [4] (first compound 2.53 µM) is 0.752.
On to NCI-H23, for which the relative viability is 0.484 in experiment [1] (first compound 1 µM); 0.584 in experiment [1] (first compound 3.162 µM); 0.661 in experiment [1] (first compound 10 µM); 0.54 in experiment [1] (first compound 31.62 µM); 0.51 in experiment [1] (first compound 100 µM); 0.721 in experiment [2] (first compound 1 µM). In addition, the relative viability in experiment [2] (first compound 3.162 µM) was 0.794; in experiment [2] (first compound 10 µM), 1.1; in experiment [2] (first compound 31.62 µM), 0.775; in experiment [2] (first compound 100 µM), 1.07; in experiment [3] (first compound 1 µM), 0.71; in experiment [3] (first compound 3.162 µM), 0.76. Besides, the relative viability in experiment [3] (first compound 10 µM) came to 0.808; in experiment [3] (first compound 31.62 µM), 0.619; in experiment [3] (first compound 100 µM) it was 0.812; in experiment [4] (first compound 0.08 µM) it was 1.07; in experiment [4] (first compound 0.253 µM), 0.987; in experiment [4] (first compound 0.8 µM), 1.38. In experiment [4] (first compound 2.53 µM), the relative viability was 0.843.
In the case of PC-3 [JPC-3], the relative viability in experiment [1] (first compound 1 µM) amounted to 1.02; in experiment [1] (first compound 3.162 µM), 0.975; in experiment [1] (first compound 10 µM), 0.943; in experiment [1] (first compound 31.62 µM), 0.914; in experiment [1] (first compound 100 µM) it was 1.01; in experiment [2] (first compound 1 µM) it was 1.06. The relative viability in experiment [2] (first compound 3.162 µM) was 1.03; in experiment [2] (first compound 10 µM), 1.06; in experiment [2] (first compound 31.62 µM) it was 1.02; in experiment [2] (first compound 100 µM), 1.1; in experiment [3] (first compound 1 µM) it was 1.3; in experiment [3] (first compound 10 µM), 0.783. For the same cell line, the relative viability in experiment [3] (first compound 100 µM) was 1.11; in experiment [4] (first compound 0.08 µM), 0.476; in experiment [4] (first compound 0.253 µM), 0.421; in experiment [4] (first compound 0.8 µM), 0.456; in experiment [4] (first compound 2.53 µM) it was 0.476.
With NCI-H1437, the relative viability in experiment [1] (first compound 1 µM) worked out at 1.02; in experiment [1] (first compound 3.162 µM), 1.03; in experiment [1] (first compound 10 µM) it was 1.22; in experiment [1] (first compound 31.62 µM) it was 1.02; in experiment [1] (first compound 100 µM), 1.17; in experiment [2] (first compound 1 µM), 0.491. Further, the relative viability in experiment [2] (first compound 3.162 µM) came to 0.493; in experiment [2] (first compound 10 µM) it was 0.427; in experiment [2] (first compound 31.62 µM), 0.317; in experiment [2] (first compound 100 µM), 0.415; in experiment [3] (first compound 1 µM), 0.307; in experiment [3] (first compound 3.162 µM), 0.315. The relative viability came to 0.339 in experiment [3] (first compound 10 µM); 0.329 in experiment [3] (first compound 31.62 µM); 0.337 in experiment [3] (first compound 100 µM); 0.826 in experiment [4] (first compound 0.08 µM); 0.736 in experiment [4] (first compound 0.253 µM); 1.01 in experiment [4] (first compound 0.8 µM). Moreover, the relative viability in experiment [4] (first compound 2.53 µM) is 0.711.
Regarding NCI-H520, the relative viability was 1.06 in experiment [1] (first compound 1 µM); 1.09 in experiment [1] (first compound 3.162 µM); 1.11 in experiment [1] (first compound 10 µM); 0.961 in experiment [1] (first compound 31.62 µM); 0.893 in experiment [1] (first compound 100 µM); 0.216 in experiment [2] (first compound 1 µM). Besides, the relative viability is 0.222 in experiment [2] (first compound 3.162 µM); 0.154 in experiment [2] (first compound 10 µM); 0.251 in experiment [2] (first compound 31.62 µM); 0.241 in experiment [2] (first compound 100 µM); 0.64 in experiment [3] (first compound 1 µM); 0.713 in experiment [3] (first compound 3.162 µM). The relative viability in experiment [3] (first compound 10 µM) amounted to 0.691; in experiment [3] (first compound 31.62 µM) it was 0.598; in experiment [3] (first compound 100 µM), 0.629; in experiment [4] (first compound 0.08 µM), 0.817; in experiment [4] (first compound 0.253 µM) it was 0.674; in experiment [4] (first compound 0.8 µM), 1.01. The relative viability in experiment [4] (first compound 2.53 µM) worked out at 0.779.
With NCI-H1666, the relative viability in experiment [1] (first compound 1 µM) was 0.736; in experiment [1] (first compound 3.162 µM), 0.764; in experiment [1] (first compound 10 µM) it was 0.783; in experiment [1] (first compound 31.62 µM), 0.744; in experiment [1] (first compound 100 µM), 0.86; in experiment [2] (first compound 1 µM) it was 0.847. In addition, the relative viability in experiment [2] (first compound 3.162 µM) amounted to 0.839; in experiment [2] (first compound 10 µM), 0.785; in experiment [2] (first compound 31.62 µM), 0.855; in experiment [2] (first compound 100 µM), 0.694; in experiment [3] (first compound 1 µM), 0.834; in experiment [3] (first compound 3.162 µM), 0.896. Moreover, the relative viability in experiment [3] (first compound 10 µM) was determined as 1.02; in experiment [3] (first compound 31.62 µM), 0.859; in experiment [3] (first compound 100 µM), 0.855; in experiment [4] (first compound 0.08 µM), 0.733; in experiment [4] (first compound 0.253 µM), 0.652; in experiment [4] (first compound 0.8 µM), 0.815. Further, in experiment [4] (first compound 2.53 µM), the relative viability is 0.662.
Regarding NCI-H1651, the relative viability in experiment [1] (first compound 1 µM) came out at 0.876; in experiment [1] (first compound 3.162 µM) it was 0.98; in experiment [1] (first compound 10 µM), 0.902; in experiment [1] (first compound 31.62 µM) it was 0.885; in experiment [1] (first compound 100 µM), 1.07; in experiment [2] (first compound 1 µM), 0.409. Moreover, the relative viability is 0.462 in experiment [2] (first compound 3.162 µM); 0.527 in experiment [2] (first compound 10 µM); 0.411 in experiment [2] (first compound 31.62 µM); 0.428 in experiment [2] (first compound 100 µM); 0.551 in experiment [3] (first compound 1 µM); 0.583 in experiment [3] (first compound 3.162 µM). For the same cell line, the relative viability is 0.582 in experiment [3] (first compound 10 µM); 0.527 in experiment [3] (first compound 31.62 µM); 0.579 in experiment [3] (first compound 100 µM); 0.731 in experiment [4] (first compound 0.08 µM); 0.744 in experiment [4] (first compound 0.253 µM); 1.07 in experiment [4] (first compound 0.8 µM). Further, the relative viability in experiment [4] (first compound 2.53 µM) was determined as 0.788.

For the origin of these results see the supplement of paper PMC10307832.
